Experimental data published in ChEMBL document CHEMBL5550169, “A consensus reverse docking approach for identification of a competitive inhibitor of acetyltransferase enhanced intracellular survival protein from Mycobacterium tuberculosis” (Bioorg Med Chem, 2024).
In brackets after ≈: the same amount, converted by molar mass.

Key:
[1] = test system: Mycobacterium tuberculosis; assay: Antibacterial activity against Mycobacterium tuberculosis H37Ra measured after 7 days by resazurin reduction microplate assay; format: functional; details: 168 h, time 7 day
[2] = test system: Mycobacterium tuberculosis; assay: Antibacterial activity against Mycobacterium tuberculosis H37Rv assessed as reduction in pellet formation measured after 7 to 14 days by alamar blue assay; format: functional; details: time 7-14 day
[3] = test system: Mycobacterium tuberculosis; assay: Antibacterial activity against Mycobacterium tuberculosis IAR2 assessed as reduction in pellet formation measured after 7 to 14 days by alamar blue assay; format: functional; details: time 7-14 day
[4] = Cmax in female BALB/c mouse plasma at 100 mg/kg, po administered as single dose via oral gavage and measured upto 24 hrs by LC-MS analysis; format: ADME, organism-based
[5] = Tmax in female BALB/c mouse plasma at 100 mg/kg, po administered as single dose via oral gavage and measured upto 24 hrs by LC-MS analysis; format: ADME, organism-based
[6] = Cmax in female BALB/c mouse lungs at 100 mg/kg, po administered as single dose via oral gavage and measured upto 24 hrs by LC-MS analysis; format: ADME, organism-based; details: lung
[7] = Tmax in female BALB/c mouse lungs at 100 mg/kg, po administered as single dose via oral gavage and measured upto 24 hrs by LC-MS analysis; format: ADME, organism-based; details: lung
N-acetyltransferase Eis = biological target: T1, N-acetyltransferase Eis (Mycobacterium tuberculosis (strain ATCC 25618 / H37Rv), UniProt P9WFK7); assay: Inhibition of Mycobacterium tuberculosis H37Rv Eis protein using kanamycin as substrate preincubated for 10 mins followed by AcCoA addition and measured every 30 secs for 20 mins
T1 sequence (P9WFK7 whole entry): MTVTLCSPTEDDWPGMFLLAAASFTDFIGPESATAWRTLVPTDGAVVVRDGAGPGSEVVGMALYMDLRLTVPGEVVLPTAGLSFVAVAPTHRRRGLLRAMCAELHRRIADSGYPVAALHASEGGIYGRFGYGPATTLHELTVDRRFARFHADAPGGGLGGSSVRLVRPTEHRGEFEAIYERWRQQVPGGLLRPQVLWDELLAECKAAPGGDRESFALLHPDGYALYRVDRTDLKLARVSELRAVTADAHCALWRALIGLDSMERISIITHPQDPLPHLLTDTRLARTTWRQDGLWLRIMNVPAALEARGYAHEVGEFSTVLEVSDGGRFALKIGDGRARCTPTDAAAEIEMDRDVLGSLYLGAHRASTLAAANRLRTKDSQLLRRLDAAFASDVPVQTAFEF

| Compound | MIC [1] [µM] | further results |
| --- | --- | --- |
| COc1ccc(C(=O)CSc2nc3sc4c(c3c(=O)n2-c2ccccc2)CCCC4)cc1 | > 200 |  |
| N#C/C(=C\c1c[nH]c2ccccc12)C(=O)N1CCOCC1 | > 200 |  |
| Cc1cc(C)c2c(C(=O)NC3CCCCCCC3)c[nH]c2c1 |  | MIC [2]: 4 ng/mL (≈ 0.0134 µM); MIC [3]: ≥ 250 ng/mL; Cmax [4]: 490 ng/mL; Tmax [5]: 2 h; Cmax [6]: 2470 ng/mL; Tmax [7]: 4 h |
| O=C(CSc1nc2sc3c(c2c(=O)n1Cc1ccccc1)CCCC3)c1ccccc1 | > 200 |  |
| O=C(CSc1nc2ccccc2c(=O)n1-c1ccccc1)c1ccccc1 | 200 (≈ 74.5 µg/mL) |  |
| N#C/C(=C\c1c[nH]c2ccccc12)C(=O)NCCCc1ccccc1 | > 200 |  |
| C=CCn1c(SCC(=O)c2ccc(Cl)c(Cl)c2)nc2sc3c(c2c1=O)CCCC3 | > 200 |  |
| C=CCn1c(SCC(=O)c2ccccc2)nc2ccccc2c1=O | 200 (≈ 67.3 µg/mL) |  |
| CC[C@@H](CO)NCCN[C@@H](CC)CO [ETHAMBUTOL] | 8 (≈ 1.63 µg/mL) |  |
| O=C(CSc1nc2ccccc2c(=O)n1-c1ccccc1)c1ccc(Cl)cc1 | 200 (≈ 81.4 µg/mL) |  |
| CO[C@H]1/C=C/O[C@@]2(C)Oc3c(C)c(O)c4c(O)c(c(/C=N/N5CCN(C)CC5)c(O)c4c3C2=O)NC(=O)/C(C)=C\C=C\[C@H](C)[C@H](O)[C@@H](C)[C@@H](O)[C@@H](C)[C@H](OC(C)=O)[C@@H]1C [RIFAMPIN] | 0.01 (≈ 0.00823 µg/mL) |  |
| CN1CCCC(CSc2nc(N)c3c4c(sc3n2)CCCC4)C1 (stereo not drawn) |  | IC50 (N-acetyltransferase Eis): 0.15 µM |
| N#C/C(=C\c1c[nH]c2ccccc12)C(=O)NCc1ccccc1 | > 200 |  |
| C=CCn1c(SCC(=O)c2ccc(Cl)cc2)nc2ccccc2c1=N | > 200 |  |
| CCCCOC(=O)/C(C#N)=C/c1c[nH]c2ccccc12 | > 200 |  |
| N#C/C(=C\c1c[nH]c2ccccc12)C(=O)Nc1ccccc1 | > 200 |  |
| C=CCn1c(SCC(=O)c2ccc(OC)cc2)nc2ccccc2c1=N | > 200 |  |
| N#C/C(=C\c1c[nH]c2ccccc12)C(=O)NCCc1ccccc1 | > 200 |  |
| Cc1cc(C)c2c(C(=O)NC3CCCCC3)c[nH]c2c1 |  | MIC [2]: 4 ng/mL (≈ 0.0148 µM); MIC [3]: ≥ 250 ng/mL |
| O=C(CSc1nc2sc3c(c2c(=O)n1Cc1ccccc1)CCCC3)c1cccc(Cl)c1 | > 200 |  |
| CC(C)OC(=O)/C(C#N)=C/c1c[nH]c2ccccc12 | 100 (≈ 25.4 µg/mL) |  |
| COC(=O)/C(C#N)=C/c1c[nH]c2ccccc12 | > 200 |  |
